From US7420001B2 (Wyeth, priority 2003, dated 2008)
Read-outs that look alike come from different tables or passages of the source.

What was measured:
MMP-13 = molecular target: T1, MMP-13 (Homo sapiens, UniProt P45452); assay: In-vitro fluorescence assay of MMP-13 activity; assay type: biochemical
T1 construct: made in house
Experimental: A continuous assay was used in which the substrate is a synthetic peptide containing a fluorescent group (7-methoxycoumarin; Mca) which is quenched by energy transfer to a 2,4-dinitrophenyl group. […] The substrate used was Mca-PQGL-(3-[2,4-dinitrophenyl]-L-2,3-diaminopropionyl)-AR-OH (denoted as Wammp-5, custom synthesized by AnaSpec, Inc.). The assay buffer consisted of 50 mM Hepes (pH 7.4), 100 mM NaCl, 5 mM CaCl2, and 0.005% Brij-35. Each well of black polystyrene 96-well plates contained a 200 μL reaction mixture consisting of assay buffer, purified MMP (final concentration of 0.5 nM, prepared by diluting with the assay buffer), and varied concentrations of inhibitor (prepared by serially diluting a given inhibitor in DMSO in 96-well polypropylene plate). […] The enzymatic reactions were initiated by adding the substrate to a final concentration of 20 μM, and mixing 10 times with a pipette. The final DMSO concentration in the assay was 6.0%.
Plots of the inhibitor concentration vs. the percent inhibition were fit to the following equation: y=(a−d)/[1+(x/c)^b]+d, a general sigmoidal curve with Hill slope, a to d. x is the inhibitor concentration under test. y is the percent inhibition. a is the limiting response as x approaches zero. As x increases without bound, y tends toward its limit d. c is the inflection point (IC50) for the curve. That is, y is halfway between the lower and upper asymptotes when x=c. b is the slope factor or Hill coefficient.

MMP-2 = molecular target: T2, MMP-2 (Homo sapiens, UniProt P08253); assay: In-vitro fluorescence assay of MMP-2 activity; assay type: biochemical; details: recombinant human MMP-2; read-out: MMP-2 IC50
T2 construct: purchased Oncogene Research Products (Calbiochem) PF023
T2 sequence (P08253 110-660): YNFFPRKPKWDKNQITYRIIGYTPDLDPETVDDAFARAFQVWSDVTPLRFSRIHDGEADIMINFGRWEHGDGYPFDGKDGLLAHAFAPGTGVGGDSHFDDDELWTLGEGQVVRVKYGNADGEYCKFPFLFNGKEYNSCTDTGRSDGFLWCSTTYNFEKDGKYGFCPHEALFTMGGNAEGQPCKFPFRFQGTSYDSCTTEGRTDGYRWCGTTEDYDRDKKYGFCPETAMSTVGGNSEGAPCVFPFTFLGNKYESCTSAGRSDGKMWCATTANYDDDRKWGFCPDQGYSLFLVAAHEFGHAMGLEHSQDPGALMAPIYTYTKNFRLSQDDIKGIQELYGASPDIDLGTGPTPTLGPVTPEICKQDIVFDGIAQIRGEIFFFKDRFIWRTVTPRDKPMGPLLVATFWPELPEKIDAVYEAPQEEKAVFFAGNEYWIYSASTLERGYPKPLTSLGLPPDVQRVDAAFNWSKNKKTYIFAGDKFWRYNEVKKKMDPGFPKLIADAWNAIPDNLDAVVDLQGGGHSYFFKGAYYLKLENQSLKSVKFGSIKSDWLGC

[1] = recombinant human catalytic domain of MMP-13, read-out: MMP-13 IC50

## CC(C)[C@@H](C(=O)O)N(C)S(=O)(=O)c1ccc(-c2ccc(NC(=O)c3cc4ccccc4o3)cc2)cc1 [Example 78, N-({4′-[(1-Benzofuran-2-ylcarbonyl)amino]-1,1′-biphenyl-4-yl}sulfonyl)-N-methyl-L-valine]
MMP-13; [1]
  IC50: 5600 nM

## C=C(Cl)c1ccc2oc(C(=O)Nc3ccc(-c4ccc(S(=O)(=O)N[C@H](C(=O)O)C(C)C)cc4)cc3)c(C)c2c1OC [Example 122, (S)-2-(4′-{[5-(1-Chloro-vinyl)-4-methoxy-3-methyl-benzofuran-2-carbonyl]-amino}-biphenyl-4-sulfonylamino)-3-methyl-butyric acid]
MMP-13; [1]
  IC50: 222 nM

## C#Cc1cccc2oc(C(=O)Nc3ccc(-c4ccc(S(=O)(=O)N[C@H](C(=O)O)C(C)C)cc4)cc3)c(C)c12 [Example 33, L-2-{4′-[(4-Ethynyl-3-methyl-benzofuran-2-carbonyl)-amino]-biphenyl-4-sulfonylamino}-3-methyl-butyric acid]
MMP-2
  IC50: 595 nM
MMP-13; [1]
  IC50: 6.1 nM

## CC(=O)c1ccc2oc(C(=O)Nc3ccc(-c4ccc(S(=O)(=O)N[C@H](C(=O)O)C(C)C)cc4)cc3)c(C)c2c1O [Example 123, (S)-2-{4′-[(5-Acetyl-4-hydroxy-3-methyl-benzofuran-2-carbonyl)-amino]-biphenyl-4-sulfonylamino}-3-methyl-butyric acid]
MMP-2
  IC50: 63 nM
MMP-13; [1]
  IC50: 3.2 nM

## CC(=O)c1cccc2oc(C(=O)Nc3ccc(-c4ccc(S(=O)(=O)N[C@H](C(=O)O)C(C)C)cc4)cc3)c(C)c12 [Example 94, N-[(4′-{[(4-Acetyl-3-methyl-1-benzofuran-2-yl)carbonyl]amino}-1,1′-biphenyl-4-yl)sulfonyl]-L-valine]
MMP-2
  IC50: 673 nM
MMP-13; [1]
  IC50: 4.5 nM

## Cc1c(C(=O)Nc2ccc(-c3ccc(S(=O)(=O)N[C@H](C(=O)O)C(C)C)cc3)cc2)oc2cccc(-c3ccoc3)c12 [Example 113, (S)-2-{4′-[(4-Furan-3-yl-3-methyl-benzofuran-2-carbonyl)-amino]-biphenyl-4-sulfonylamino}-3-methyl-butyric acid]
MMP-2
  IC50: 2060 nM
MMP-13; MMP-13 IC50, recombinant human catalytic domain of MMP-13
  IC50: 6.4 nM

## Cc1c(C(=O)Nc2ccc(-c3ccc(S(=O)(=O)N[C@H](C(=O)O)C(C)C)cc3)cc2)oc2cccc(C(C)O)c12 (stereo partly drawn) [Example 95, N-{[4′-({[4-(1-Hydroxyethyl)-3-methyl-1-benzofuran-2-yl]carbonyl}amino)-1,1′-biphenyl-4-yl]sulfonyl}-L-valine]
MMP-2
  IC50: 2070 nM
MMP-13; [1]
  IC50: 8.4 nM

## Cc1c(C(=O)Nc2ccc(-c3ccc(S(=O)(=O)N[C@@H](C(=O)O)C(C)C)cc3)cc2)oc2cccc(NS(C)(=O)=O)c12 [Example 41, D-2-{4-[(4-Methanesulfonylamino-3-methyl-benzofuran-2-carbonyl)-amino]-biphenyl-4-sulfonylamino}-3-methyl-butyric acid]
MMP-2
  IC50: 1460 nM
MMP-13; [1]
  IC50: 8.5 nM

## Cc1c(C(=O)Nc2ccc(-c3ccc(S(=O)(=O)N[C@H](C(=O)O)C(C)C)cc3)cc2)oc2cccc(NC(=O)C(C)C)c12 [Example 50, L-2-{4′-[(4-Isobutyrylamino-3-methyl-benzofuran-2-carbonyl)-amino]-biphenyl-4-sulfonylamino}-3-methyl-butyric acid]
MMP-2
  IC50: 7710 nM
MMP-13; [1]
  IC50: 45 nM

## Cc1c(C(=O)Nc2ccc(-c3ccc(S(=O)(=O)N[C@H](C(=O)O)C(C)C)cc3)nc2)oc2cccc(C#N)c12 [Example 40, L-2-(4-{5-[(4-Cyano-3-methyl-benzofuran-2-carbonyl)-amino]-pyridin-2-yl}-benzenesulfonylamino)-3-methyl-butyric acid]
MMP-2
  IC50: 2840 nM
MMP-13; [1]
  IC50: 16.2 nM

## Cc1c(C(=O)Nc2ccc(-c3ccc(S(=O)(=O)N(C)[C@H](C(=O)O)C(C)C)cc3)cc2)oc2cccc(C(O)CO)c12 (stereo partly drawn) [Example 99, N-{[4′-({[4-(1,2-dihydroxyethyl)-3-methyl-1-benzofuran-2-yl]carbonyl}amino)-1,1′-biphenyl-4-yl]sulfonyl}-N-methyl-L-valine]
MMP-2
  IC50: 13200 nM
MMP-13; [1]
  IC50: 70 nM

## Cc1c(C(=O)Nc2ccc(-c3ccc(S(=O)(=O)N[C@H](C(=O)O)C(C)C)cc3)cc2)oc2cccc(N3CCCC3)c12 [Example 63, L-3-Methyl-2-{4′-[(3-methyl-4-pyrrolidin-1-yl-benzofuran-2-carbonyl)-amino]-biphenyl-4-sulfonylamino}-butyric acid]
MMP-2
  IC50: 5000 nM
MMP-13; [1]
  IC50: 28 nM

## O=C(Nc1ccc(-c2ccc(S(=O)(=O)N[C@@H](Cc3cnc[nH]3)C(=O)O)cc2)cc1)c1cc2ccccc2o1 [Example 17, N-({4′-[(1-Benzofuran-2-ylcarbonyl)amino]-1,1′-biphenyl-4-yl}sulfonyl)-L-Histidine]
MMP-2
  IC50: 37 nM

## CC(C)[C@H](NS(=O)(=O)c1ccc(-c2ccc(NC(=O)c3cc4cc(N)ccc4o3)cc2)cc1)C(=O)O [Example 7, N-[(4′-{[(5-amino-1-benzofuran-2-yl)carbonyl]amino}-1,1′-biphenyl-4-yl)sulfonyl]-L-valine]
MMP-13; [1]
  IC50: 1.5 nM

## CC(C)[C@H](NS(=O)(=O)c1ccc(-c2ccc(NC(=O)c3csnn3)cc2)cc1)C(=O)O [Example 163, N-({4′-[(1,2,3-thiadiazol-4-ylcarbonyl)amino]-1,1′-biphenyl-4-yl}sulfonyl)-L-valine]
MMP-2
  IC50: 2 nM

## CC(C)[C@H](NS(=O)(=O)c1ccc(-c2ccc(NS(=O)(=O)c3cccs3)cc2)cc1)C(=O)O [Example 170, (S)-3-Methyl-2-[4′-(thiophene-2-sulfonylamino)-biphenyl-4-sulfonylamino]-butyric acid]
MMP-13; [1]
  IC50: 2870 nM

## CC(C)[C@H](NS(=O)(=O)c1ccc(-c2ccc(NC(=O)c3oc4ccccc4c3-c3ccccc3)cc2)cc1)C(=O)O [Example 54, L-3-Methyl-2-{4′-[(3-phenyl-benzofuran-2-carbonyl)-amino]-biphenyl-4-sulfonylamino}-butyric acid]
MMP-13; [1]
  IC50: 220 nM

## CC(C)[C@H](NS(=O)(=O)c1ccc(-c2ccc(NC(=O)c3cc4ccccc4o3)cn2)cc1)C(=O)O [Example 76, 4-{5-[(Benzofuran-2-carbonyl)-amino]-pyridin-2-yl}-benzenesulfonyl-L-valine]
MMP-13; [1]
  IC50: 3.1 nM

## COCCCc1cccc2oc(COc3ccc(-c4ccc(S(=O)(=O)N[C@H](C(=O)O)C(C)C)cc4)cc3)c(C)c12 [Example 147, N-[(4′-{[4-(3-methoxypropyl)-3-methyl-1-benzofuran-2-yl]methoxy}-1,1′-biphenyl-4-yl)sulfonyl]-L-valine]
MMP-13; [1]
  IC50: 1.9 nM

## CC(C)[C@H](NS(=O)(=O)c1ccc(-c2ccc(NC(=O)c3oc4cccc5c4c3CN(C)CC5)cc2)cc1)C(=O)O [Example 85, N-[(4′-{[(4-Methyl-3,4,5,6-tetrahydrofuro[4,3,2-ef][3]benzazepin-2-yl)carbonyl]amino}-1,1′-biphenyl-4-yl)sulfonyl]-L-valine]
MMP-13; [1]
  IC50: 294 nM

## COc1c(C(C)=O)ccc2oc(C(=O)Nc3ccc(-c4ccc(S(=O)(=O)N[C@H](C(=O)O)C(C)C)cc4)cc3)c(C)c12 [Example 121, (S)-2-{4′-[(5-Acetyl-4-methoxy-3-methyl-benzofuran-2-carbonyl)-amino]-biphenyl-4-sulfonylamino}-3-methyl-butyric acid]
MMP-13; [1]
  IC50: 1020 nM

## COc1cccc2cc(C(=O)Nc3ccc(-c4ccc(S(=O)(=O)N[C@H](C(=O)O)C(C)C)cc4)cc3)oc12 [Example 5, N-[(4′-{[(7-methoxy-1-benzofuran-2-yl)carbonyl]amino}-1,1′-biphenyl-4-yl)sulfonyl]-L-valine]
MMP-13; [1]
  IC50: 10.4 nM

## CC(C)[C@H](NS(=O)(=O)c1ccc(-c2ccc(NC(=O)c3cc4c(OCc5ccccc5)cccc4o3)cc2)cc1)C(=O)O [Example 13, 4′-[(4-Benzyloxy-benzofuran-2-carbonyl)-amino]-biphenyl-4-sulfonyl-L-valine]
MMP-2
  IC50: 62 nM

## COc1cc(OC)c2c(C)c(C(=O)Nc3ccc(-c4ccc(S(=O)(=O)N[C@H](C(=O)O)C(C)C)cc4)cc3)oc2c1C [Example 44, L-2-{4′-[(4,6-Dimethoxy-3,7-dimethyl-benzofuran-2-carbonyl)-amino]-biphenyl-4-sulfonylamino}-3-methyl-butyric acid]
MMP-13; [1]
  IC50: 286 nM

## Cc1nc(-c2ccc(C(F)(F)F)cc2)sc1C(=O)Nc1ccc(-c2ccc(S(=O)(=O)N[C@H](C(=O)O)C(C)C)cc2)cc1 [Example 66, (S)-3-Methyl-2-(4′-{[4-methyl-2-(4-trifluoromethyl-phenyl)-thiazole-5-carbonyl]-amino}-biphenyl-4-sulfonylamino)-butyric acid]
MMP-13; [1]
  IC50: 121 nM

## Cc1cc(-c2cccc3oc(C(=O)Nc4ccc(-c5ccc(S(=O)(=O)N[C@H](C(=O)O)C(C)C)cc5)cc4)c(C)c23)on1 [Example 35, L-3-Methyl-2-(4′-{[3-methyl-4-(3-methyl-isoxazol-5-yl)-benzofuran-2-carbonyl]-amino}-biphenyl-4-sulfonylamino)-butyric acid]
MMP-13; [1]
  IC50: 9.9 nM

## CC(C)[C@@H](C(=O)O)N(Cc1cccnc1)S(=O)(=O)c1ccc(-c2ccc(NC(=O)c3cc4ccccc4o3)cc2)cc1 [Example 81, N-({4′-[(1-Benzofuran-2-ylcarbonyl)amino]-1,1′-biphenyl-4-yl}sulfonyl)-N-(pyridin-3-ylmethyl)-L-valine]
MMP-13; [1]
  IC50: 323 nM
